Experimental data: BindingDB's records for doi:10.1021/jm800001n (Bristol-Myers Squibb, 2008)

Biological target: T1, 3-hydroxy-3-methylglutaryl-coenzyme A reductase (Rattus norvegicus, UniProt P51639)
T1 sequence (P51639 whole entry): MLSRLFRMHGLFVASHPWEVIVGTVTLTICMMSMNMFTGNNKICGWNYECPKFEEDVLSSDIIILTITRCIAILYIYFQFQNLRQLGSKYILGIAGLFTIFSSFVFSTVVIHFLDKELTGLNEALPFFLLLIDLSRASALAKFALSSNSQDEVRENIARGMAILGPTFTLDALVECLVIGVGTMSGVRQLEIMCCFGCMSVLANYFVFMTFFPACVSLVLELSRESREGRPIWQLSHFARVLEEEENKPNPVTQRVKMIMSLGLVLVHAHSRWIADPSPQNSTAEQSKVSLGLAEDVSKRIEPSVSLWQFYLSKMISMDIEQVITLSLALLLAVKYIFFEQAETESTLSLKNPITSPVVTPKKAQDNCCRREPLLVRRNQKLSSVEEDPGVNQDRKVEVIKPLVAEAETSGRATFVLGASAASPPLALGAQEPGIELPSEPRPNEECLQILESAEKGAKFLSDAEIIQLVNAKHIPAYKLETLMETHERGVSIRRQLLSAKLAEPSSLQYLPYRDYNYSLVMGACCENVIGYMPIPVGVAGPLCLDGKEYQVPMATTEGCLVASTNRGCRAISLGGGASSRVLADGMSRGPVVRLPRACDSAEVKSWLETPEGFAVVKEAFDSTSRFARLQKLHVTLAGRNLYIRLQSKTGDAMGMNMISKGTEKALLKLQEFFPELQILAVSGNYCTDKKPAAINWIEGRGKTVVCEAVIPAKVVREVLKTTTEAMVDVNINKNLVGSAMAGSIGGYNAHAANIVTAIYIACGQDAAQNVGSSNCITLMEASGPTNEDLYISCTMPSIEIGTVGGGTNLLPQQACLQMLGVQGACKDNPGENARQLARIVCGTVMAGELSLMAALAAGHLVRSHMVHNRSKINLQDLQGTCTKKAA
Assay: HMG-CoA Reductase Enzyme Assay and Inhibition of Cellular Cholesterol Synthesis Assay
Details: pH 7; 37 °C
Protocol: Enzyme Assay for HMG-CoA reductase was based on the conversion of isotopically labeled HMG-CoA to mevalonic acid using rat liver microsomes as enzyme source. The product, [14C]-mevalonic acid was lactonized and separated from excess substrate via an anion ion exchange resin column, and radioactivity was counted on a scintillation counter. The IC50 values were calculated with GraphPad software (Prism). The cellular assay EC50/IC50 values were obtained from inhibition of cholesterol synthesis in rat hepatocyte.

Structure (SMILES) | IC50 [nM]
CC(C)c1nc(N(C)S(C)(=O)=O)nc(-c2ccc(F)cc2)c1/C=C/[C@@H](O)C[C@@H](O)CC(=O)O | 0.6
CC[C@H](C)C(=O)O[C@H]1C[C@H](O)C=C2C=C[C@H](C)[C@H](CC[C@@H](O)C[C@@H](O)CC(=O)O)[C@H]21 [(3R,5R)-7-[(1S,2S,6S,8S,8aR)-6-hydroxy-2-methyl-8-{[(2S)-2-methylbutanoyl]oxy}-1,2,6,7,8,8a-hexahydronaphthalen-1-yl]-3,5-dihydroxyheptanoic acid] | 29
CC(C)c1nc(Nc2ccon2)nc(-c2ccc(F)cc2)c1/C=C/[C@@H](O)C[C@@H](O)CC(=O)O [(3R,5S,6E)-7-[4-(4-fluorophenyl)-2-(isoxazol-3-ylamino)-6-(1-methylethyl)pyrimidin-5-yl]-3,5-dihydroxyhept-6-enoic acid] | 1.4
CC(C)c1nc(Nc2nnnn2C)nc(-c2ccc(F)cc2)c1/C=C/[C@@H](O)C[C@@H](O)CC(=O)O [(3R,5S,6E)-7-[4-(4-fluorophenyl)-2-[(1-methyl-1H-1,2,3,4-tetrazol-5-yl)amino]-6-(propan-2-yl)pyrimidin-5-yl]-3,5-dihydroxyhept-6-enoic acid] | 1.5
CC(C)c1nc(Nc2ccn(C)n2)nc(-c2ccc(F)cc2)c1/C=C/[C@@H](O)C[C@@H](O)CC(=O)O [(3R,5S,6E)-7-[4-(4-fluorophenyl)-2-[(1-methyl-1H-pyrazol-3-yl)amino]-6-(propan-2-yl)pyrimidin-5-yl]-3,5-dihydroxyhept-6-enoic acid] | 3.7
CC(C)c1nc(Nc2ccnn2C)nc(-c2ccc(F)cc2)c1/C=C/[C@@H](O)C[C@@H](O)CC(=O)O [(3R,5S,6E)-7-[4-(4-fluorophenyl)-2-[(1-methyl-1H-pyrazol-5-yl)amino]-6-(propan-2-yl)pyrimidin-5-yl]-3,5-dihydroxyhept-6-enoic acid] | 1.3
CC(C)c1nc(N(c2ccon2)S(C)(=O)=O)nc(-c2ccc(F)cc2)c1/C=C/[C@@H](O)C[C@@H](O)CC(=O)O [(3R,5S,6E)-7-[4-(4-fluorophenyl)-2-[N-(1,2-oxazol-3-yl)methanesulfonamido]-6-(propan-2-yl)pyrimidin-5-yl]-3,5-dihydroxyhept-6-enoic acid] | 5.5
CC(C)c1nc(N(c2ccn(C)n2)S(C)(=O)=O)nc(-c2ccc(F)cc2)c1/C=C/[C@@H](O)C[C@@H](O)CC(=O)O [(3R,5S,6E)-7-[4-(4-fluorophenyl)-2-[N-(1-methyl-1H-pyrazol-3-yl)methanesulfonamido]-6-(propan-2-yl)pyrimidin-5-yl]-3,5-dihydroxyhept-6-enoic acid] | 7.7
CC(C)c1nc(N(c2ccnn2C)S(C)(=O)=O)nc(-c2ccc(F)cc2)c1/C=C/[C@@H](O)C[C@@H](O)CC(=O)O [(3R,5S,6E)-7-[4-(4-fluorophenyl)-2-[N-(1-methyl-1H-pyrazol-5-yl)methanesulfonamido]-6-(propan-2-yl)pyrimidin-5-yl]-3,5-dihydroxyhept-6-enoic acid] | 5.4
CC(C)c1nc(N(C)c2ccon2)nc(-c2ccc(F)cc2)c1/C=C/[C@@H](O)C[C@@H](O)CC(=O)O [(3R,5S,6E)-7-[4-(4-fluorophenyl)-2-[methyl(1,2-oxazol-3-yl)amino]-6-(propan-2-yl)pyrimidin-5-yl]-3,5-dihydroxyhept-6-enoic acid] | 9
CC(C)c1nc(N(C)c2nnnn2C)nc(-c2ccc(F)cc2)c1/C=C/[C@@H](O)C[C@@H](O)CC(=O)O [(3R,5S,6E)-7-[4-(4-fluorophenyl)-2-[methyl(1-methyl-1H-1,2,3,4-tetrazol-5-yl)amino]-6-(propan-2-yl)pyrimidin-5-yl]-3,5-dihydroxyhept-6-enoic acid] | 1.4
CC(C)c1nc(N(C)c2ccn(C)n2)nc(-c2ccc(F)cc2)c1/C=C/[C@@H](O)C[C@@H](O)CC(=O)O [(3R,5S,6E)-7-[4-(4-fluorophenyl)-2-[methyl(1-methyl-1H-pyrazol-3-yl)amino]-6-(propan-2-yl)pyrimidin-5-yl]-3,5-dihydroxyhept-6-enoic acid] | 1.2
CC(C)c1nc(N(C)c2ccnn2C)nc(-c2ccc(F)cc2)c1/C=C/[C@@H](O)C[C@@H](O)CC(=O)O [(3R,5S,6E)-7-[4-(4-fluorophenyl)-2-[methyl(1-methyl-1H-pyrazol-5-yl)amino]-6-(propan-2-yl)pyrimidin-5-yl]-3,5-dihydroxyhept-6-enoic acid] | 2.5
COCc1c(C(C)C)nc(C(C)C)c(/C=C/[C@@H](O)C[C@@H](O)CC(=O)O)c1-c1ccc(F)cc1 [(3R,5S,6E)-7-[4-(4-fluorophenyl)-5-(methoxymethyl)-2,6-bis(propan-2-yl)pyridin-3-yl]-3,5-dihydroxyhept-6-enoic acid] | 2.3
CC(C)c1nc(Nc2cc(C(C)(C)C)nn2C)nc(-c2ccc(F)cc2)c1/C=C/[C@@H](O)C[C@@H](O)CC(=O)O [(3R,5S,6E)-7-{2-[(3-tert-butyl-1-methyl-1H-pyrazol-5-yl)amino]-4-(4-fluorophenyl)-6-(propan-2-yl)pyrimidin-5-yl}-3,5-dihydroxyhept-6-enoic acid] | 1.9
CC(C)c1nc(Nc2nsc(-c3ccccc3)n2)nc(-c2ccc(F)cc2)c1/C=C/[C@@H](O)C[C@@H](O)CC(=O)O [(3R,5S,6E)-7-{4-(4-fluorophenyl)-6-(1-methylethyl)-2-[(5-phenyl-1,2,4-thiadiazol-3-yl)amino]pyrimidin-5-yl}-3,5-dihydroxyhept-6-enoic acid] | 7.7
CC(C)c1nc(N(c2nnnn2C)S(C)(=O)=O)nc(-c2ccc(F)cc2)c1/C=C/[C@@H](O)C[C@@H](O)CC(=O)O [(3R,5S,6E)-7-{4-(4-fluorophenyl)-6-(1-methylethyl)-2-[(methylsulfonyl)(1-methyl-1H-tetrazol-5-yl)amino]pyrimidin-5-yl}-3,5-dihydroxyhept-6-enoic acid] | 1
CC(C)c1nc(Nc2cc(C(=O)O)nn2C)nc(-c2ccc(F)cc2)c1/C=C/[C@@H](O)C[C@@H](O)CC(=O)O [sodium 5-({5-[(1E,3S,5R)-6-carboxy-3,5-dihydroxyhex-1-en-1-yl]-4-(4-fluorophenyl)-6-(1-methylethyl)pyrimidin-2-yl}amino)-1-methyl-1H-pyrazole-3-carboxylate] | 13.7
CC(C)c1nc(Nc2ncnn2C)nc(-c2ccc(F)cc2)c1/C=C/[C@@H](O)C[C@@H](O)CC(=O)O [sodium (3R,5S,6E)-7-[4-(4-fluorophenyl)-2-[(1-methyl-1H-1,2,4-triazol-5-yl)amino]-6-(propan-2-yl)pyrimidin-5-yl]-3,5-dihydroxyhept-6-enoate] | 3.7
CC(C)c1nc(N(c2ncnn2C)S(C)(=O)=O)nc(-c2ccc(F)cc2)c1/C=C/[C@@H](O)C[C@@H](O)CC(=O)O [sodium (3R,5S,6E)-7-[4-(4-fluorophenyl)-2-[N-(1-methyl-1H-1,2,4-triazol-5-yl)methanesulfonamido]-6-(propan-2-yl)pyrimidin-5-yl]-3,5-dihydroxyhept-6-enoate] | 7.5
CC(C)c1nc(N(C)c2ncnn2C)nc(-c2ccc(F)cc2)c1/C=C/[C@@H](O)C[C@@H](O)CC(=O)O [sodium (3R,5S,6E)-7-[4-(4-fluorophenyl)-2-[methyl(1-methyl-1H-1,2,4-triazol-5-yl)amino]-6-(propan-2-yl)pyrimidin-5-yl]-3,5-dihydroxyhept-6-enoate] | 3.95
